In PubChem BioAssay AID1508591 one finds half-life data, which are given here for 92 compounds.

Usually half-life stands for the time in which the quantity being followed falls by half. A high value points to slow decline.

Molecules are shown by their SMILES. “And” between values parts separate entries of the source, which are not always exact repeats. Equal values may be shown once.

For this data set the following is noted: rat; liver microsomes; pH 7.4; 15.0 min; 1.0 µM.
For `CCOC(=O)c1ccc(NC2CCCCC2)c(N)c1`, the half-life came out at 2.5 min.

In turn, `Cc1noc(-c2cn(C3CCN(C(=O)c4ccc(OC(F)(F)F)cc4)CC3)nn2)n1` came in with a half-life above 30 min.

In turn, `Cc1ccc(S(=O)(=O)Nc2cnccc2C(=O)Nc2nc(-c3ccco3)cs2)cc1` yielded a half-life of 1.9 min.

For `O=C(Nc1nc(-c2ccccc2)cs1)c1ccncc1NS(=O)(=O)c1c(F)cc(F)cc1F`, the half-life was found to be 5.7 min.

As to `COc1cc(-c2nc(-c3ccccc3)c(-c3cccs3)[nH]2)cc(OC)c1O`, the half-life is above 30 min.

Regarding `CCC(=O)NC(c1cccs1)c1cc([N+](=O)[O-])c2cccnc2c1O` (configuration not stated), the half-life is above 30 min.

`CCCCn1cnc2cc(NCc3ccc(OCC)cc3)ccc21` came in with a half-life of 10.3 min.

Compound `CC1=C(C(=O)Nc2ccccc2C)C(c2ccccc2Br)N=C(Nc2nc3ccccc3o2)N1` (configuration not stated) returned a half-life of 12 min.

Regarding `Cc1ccccc1S(=O)(=O)N1CCc2cc(-c3nc(NC(=O)Cc4ccc5c(c4)OCO5)sc3C)ccc21`, the half-life came to 5 min.

With `CN1CCN(C2=Nc3ccccc3Sc3ccc(Cl)cc32)CC1`, the half-life was 1.11 min.

In turn, `O=C(O)c1ccncc1Nc1nn(CCN2CCC(F)(F)CC2)c2ccc(F)cc12` had a half-life of 22.2 min.

On to `CC(C)(C)C1CCc2[nH]c3ccccc3c(=O)c2C1` (configuration not stated), for which the half-life was found to be 18.7 min.

On to `O=C(O)CCNc1cc(N2CCc3ccccc3CC2)nc(-c2cccnc2)n1`, for which the half-life was above 30 min.

`Cc1ccc(NC(=O)Nc2cc3c(cc2N2CCCCC2)n(C)c(=O)n3C)cc1Cl` came in with a half-life of 6.3 min.

For `COc1ccc(OC)c(-c2nnc3ccc(-c4ccc(OC)c(O[C@@H]5CCOC5)c4)nn23)c1`, the half-life stood at 5.5 min.

As for `Cc1cc(SCc2sc(-c3ccc(C(F)(F)F)c(F)c3)nc2C)ccc1OCC(=O)O`, the half-life amounted to 21 min.

In turn, `CCN1CCN(c2ncc3c(n2)CCN(Cc2cc(Br)cs2)C3)CC1` gave a half-life of 2.7 min.

In turn, `NC(=O)C1CCN(c2nc(-c3ccc4c(c3)OCCCO4)cs2)CC1` came in with a half-life of 6.7 min.

Take `Cc1ccccc1C(=O)N1CCc2cc(-n3cc(NC(=O)Cc4ccccc4)cn3)ccc21`: the half-life was found to be 11 min.

With `O=C(O)c1cccc(-c2noc(-c3ccccc3F)n2)c1`, the half-life was above 30 min.

On to `c1cc(-c2cc(-c3ccncc3)c3cncn3c2)c2cc[nH]c2c1`, for which the half-life came to 5.63 min.

In turn, `CCc1ccc(OC(C)C(=O)N2CCC(c3nc4ccccc4o3)CC2)cc1` (configuration not stated) had a half-life of 1.32 min.

`CCCCN(CC)CCCNC(=O)c1ccc2c(c1)N(Cc1ccc(C)cc1)C(=O)c1ccccc1S2` gave a half-life of 4.06 min.

As to `O=C(NCCCc1ccccc1)C1CCN(c2nc(-c3ccc(Br)cc3)cs2)CC1`, the half-life is 2.96 min.

Take `COc1ccc(-c2noc(CSc3nnc(Cc4ccccc4)n3-c3ccc(F)cc3)n2)cc1`: the half-life was 1.69 min.

In turn, `CC(C)Oc1ccc(CCNC(=O)c2cc3sccc3n2Cc2ccccc2)cc1OC(C)C` came in with a half-life of 2.7 min.

Take `Nc1c(C(=O)N2CCCCC2)sc(=S)n1-c1ccccc1`: the half-life amounted to 6.6 min.

As for `Cc1ccc(-c2c(CN3CCN(c4cccc(C(F)(F)F)c4)CC3)csc2C)cc1`, the half-life stood at 18.5 min.

The compound `CC(=O)c1c(C)[nH]c(C(=O)N(C)C)c1C` registered a half-life above 30 min.

As for `CCN(CC)CCO[C@H]1CC[C@@]2(C)C(=CC[C@@H]3[C@@H]2CC[C@]2(C)C(=O)CC[C@@H]32)C1`, the half-life worked out at 5.67 min.

The compound `COc1ccc(C(=O)Nc2nc(-c3ccccc3)cs2)c(OC)c1` returned a half-life of 18 min.

`O=C(Nc1nc(-c2ccccc2)cs1)c1ccncc1NS(=O)(=O)c1ccc(F)cc1F` came in with a half-life of 6.5 min.

On to `Cc1ccc(S(=O)(=O)Nc2ccccc2C(=O)Nc2nc(-c3ccccc3)c(C)s2)cc1`, for which the half-life was found to be 6.3 min.

Compound `Cc1ccc2c(c1)c(=O)c1ccccc1n2CCCC(=O)Nc1cc(Cl)ccc1C` came in with a half-life of 3.79 min.

In turn, `NC(=O)C1CCN(c2nc(-c3ccccc3[N+](=O)[O-])cs2)CC1` showed a half-life of 3.9 min.

As to `c1ccc(-c2cn[nH]c2)cc1`, the half-life is 13.1 min.

Compound `Cc1cc(F)ccc1-c1nc(NCCN=C(N)NC#N)nc2c1ccc(=O)n2-c1c(F)cccc1F` displayed a half-life of 5.23 min.

Consider `Fc1cnc(-c2ccccc2C(F)F)nc1NCC1CCN(c2cnccn2)C1` (configuration not stated), for which the half-life stood at 2.8 min.

`COc1ccc2oc(NC3=NC(c4[nH]ncc4Cl)C4=C(CCCC4=O)N3)nc2c1` (configuration not stated) showed a half-life of 14.2 min.

With `CC(C)(Nc1nc(-c2ccccc2C(F)(F)F)nc2ccccc12)c1ccc(-c2cccc(C(F)(F)F)c2)cc1`, the half-life was above 30 min.

`Cc1nc([N+](=O)[O-])cn1-c1ccc([N+](=O)[O-])cc1` gave a half-life above 30 min.

With `COc1ccc2c3c([nH]c2c1)C1CC2C(CC(O)C(OC)C2CO)CN1CC3` (configuration not stated), the half-life is above 30 min.

In the case of `CN(C)CCNC(=O)c1nc2nc(-c3ccccc3)c(-c3cccc(F)c3)cc2n1C`, the half-life is above 30 min.

For `COC(=O)CSc1nc(-c2ccccc2)cc(-c2ccco2)c1C#N`, the half-life was 1 min.

Regarding `CC(C)(C)C1CCc2c(sc(NC(=O)c3ccncc3)c2C(N)=O)C1` (configuration not stated), the half-life is above 30 min.

With `CCOc1ccc(CCNC(=O)c2cc3ncccc3n2Cc2cccc(C)c2)cc1OCC`, the half-life is 1.9 min.

On to `O=C1CCCC2=C1C(c1ccncc1Cl)N=C(Nc1nc3ccccc3o1)N2` (configuration not stated), for which the half-life amounted to 6.6 min.

`O=C(Nc1ncnc2sc3c(c12)CCC3)c1ccco1` returned a half-life of 5.6 min.

Consider `Cc1cnc(-c2ccccc2C2COC2)nc1NCC1CCN(c2cccnc2)CC1`, for which the half-life was above 30 min.

The compound `Oc1ccc(-c2nc(C3CC3)nc3c2CCN(Cc2ccc(F)cc2)CC3)cc1` returned a half-life of 2.02 min.

Take `FC(F)(F)c1ccccc1-c1nc(NCc2cccc3ccccc23)c2ccccc2n1`: the half-life was determined as 4.33 min.

With `Cc1ccc(S(=O)(=O)Nc2cnccc2C(=O)Nc2nc(-c3cccc(Cl)c3)cs2)cc1`, the half-life is above 30 min.

Turning to `COC(=N)c1nc2ccc3ncnc(Nc4ccc(F)cc4Br)c3c2s1`, the half-life was above 30 min.

Take `O=C(c1ccccc1)N1CCC(C(=O)N2CCC(N3Cc4ccccc4C3=O)CC2)CC1`: the half-life was above 30 min.

With `COc1ccc(C2Nc3ccccc3C(=O)N2Cc2ccco2)cc1COc1ccc(NC(C)=O)cc1` (configuration not stated), the half-life is 1.35 min and 2.57 min.

As for `Cc1ccc(S(=O)(=O)Nc2cnccc2C(=O)Nc2nc(C3CCC3)cs2)cc1`, the half-life turned out to be 5 min.

Regarding `Cc1ccc2cccc(NC(=O)c3ccc(OC(C)C)cc3)c2n1`, the half-life was determined as 17.9 min.

In turn, `COc1cc([C@@H](CC(=O)O)c2ccc(C)c(CN3C[C@@H](C)Oc4ccccc4S3(=O)=O)c2)cc2nnn(C)c12` came in with a half-life of 16 min.

For `NC(=O)C1CCN(c2ncc(-c3ccc4c(c3)OCO4)s2)CC1`, the half-life worked out at 7.65 min.

In turn, `COc1ccc(-c2nc(CS(=O)CC(=O)N3CCC4(CC3)OCCO4)c(C)o2)cc1` (configuration not stated) registered a half-life above 30 min.

For `Cc1cc(-c2nnc3n2CCCCC3)c(C)n1-c1cccc(C#N)c1`, the half-life is 8.1 min.

Take `CC(C)CC(C)NC(=O)c1noc(-c2ccc[nH]c2=O)n1` (configuration not stated): the half-life is above 30 min.

`COc1cc(-c2nc(Nc3ccc(F)c(F)c3)c3ccccc3n2)cc(OC)n1` yielded a half-life above 30 min.

For `CC(C)(C)c1ccc(-n2cnc3cc(C(=O)N4CCCCC4)ccc32)cc1`, the half-life was 2.7 min.

`Cc1nn2c(c1-c1ccccc1OCc1ccccc1)N(C(=O)Cc1ccc3c(c1)OCO3)CCC2` showed a half-life of 1.41 min.

Compound `CCOc1ccc(CCNC(=O)c2cc3cccnc3n2Cc2cccc(C)c2)cc1OCC` displayed a half-life of 1.7 min.

`COc1ccc(NS(=O)(=O)c2ccc(C)c(C(=O)Nc3ccc4oc(C)nc4c3)c2)cc1`: the half-life was found to be 4.3 min.

Compound `O=C(Nc1ncc(Cc2ccc(C(F)(F)F)cc2)s1)c1cnc(-c2ccccc2)[nH]1` registered a half-life above 30 min.

In the case of `O=C(C1CCN(c2nc(-c3ccc(Br)cc3)cs2)CC1)N1CCNCC1`, the half-life is above 30 min.

For the compound `Clc1ccc2ncc(-c3cccc(NC4CCNC4)n3)n2c1` (configuration not stated), the half-life worked out at 21.8 min.

`COc1ccc(C2c3c(ncn(CCN4CCOCC4)c3=N)Oc3ccc4ccccc4c32)cc1OC` (configuration not stated) returned a half-life of 3.6 min.

Compound `O=C1Nc2cc(Cl)ccc2Nc2cscc21` gave a half-life of 21.8 min.

As to `Cc1ccc(S(=O)(=O)Nc2cc3c(cc2C(=O)Nc2nc(-c4ccccc4)cs2)OCO3)cc1`, the half-life is 6.7 min.

As to `CCOc1ccc(CCNC(=O)c2cc3sccc3n2C(C)C)cc1OCC`, the half-life stood at 1.7 min.

For the compound `CC1CCC(NC(=O)c2ccc3c(c2)N(Cc2ccccc2F)C(=O)c2ccccc2S3)CC1` (configuration not stated), the half-life came to 2.12 min.

`Oc1ccc(CNc2ccc(C(F)(F)F)cc2F)c2cccnc12`: the half-life came to 5.53 min.

In turn, `COc1ccc(Nc2cc3c(nc2OC)nc(CCc2ccccc2)n3C)cn1` gave a half-life of 19.5 min.

For `COc1ccc(-c2nc(NC(C)c3ccccc3)c3ccccc3n2)cc1` (configuration not stated), the half-life was 20.3 min.

In turn, `Cc1cccc(N2CCN(C(=O)c3ccc4c(c3)C(O)CCCCCN4C)CC2)c1` (configuration not stated) returned a half-life of 1.28 min.

In turn, `O=C1NC(=O)C(c2cnc3ccccn23)=C1c1cn2c3c(cccc13)CN(C(=O)N1CCOCC1)CC2` yielded a half-life above 30 min.

Compound `COc1cc(-c2cn(C)c(=O)c3cnccc23)c(OC)cc1CN(C)C` gave a half-life above 30 min.

`O=C(c1nc(-c2ccc(Cl)cc2Cl)c2cnccn12)N1CCOCC1` yielded a half-life of 23.6 min.

For the compound `O=C(Nc1ncc(Cc2ccc(C(F)(F)F)cc2)s1)c1cn(-c2ccccc2)cn1`, the half-life was above 30 min.

Turning to `O=C(Nc1ccc([S+](=O)([O-])Nc2nccs2)cc1)c1ccccn1`, the half-life was found to be 2.4 min.

`Cn1c(CN2CCCC2)nc2cc(NC(=O)COc3ccc(Cl)cc3)ccc21` had a half-life of 8.4 min.

Compound `CCOc1ccc(C(C)CNC(=O)c2cc3sccc3n2Cc2ccccc2)cc1OCC` (configuration not stated) had a half-life of 2.5 min.

`Cc1ccnc(N=C(N)N2CCN(c3cccc(C(F)(F)F)c3)CC2)c1` showed a half-life of 2.26 min.

Consider `O=C(Nc1ccc(Cl)c(S(=O)(=O)N2CCOCC2)c1)c1ccc(S(=O)(=O)N2CCCCC2)cc1`, for which the half-life amounted to 3 min.

`O=C1Nc2cc(Cl)ccc2/C1=C\c1cc(Cl)c(O)c(Cl)c1` showed a half-life above 30 min.

For the compound `Cc1ccc(Cl)cc1NS(=O)(=O)c1cc2c(cc1F)NC(=O)CC2`, the half-life stood at 4.97 min.

Compound `CCN(CC)c1ccc(Nc2nc(Cl)ncc2Br)cc1` returned a half-life of 6.24 min.

`CN(C)C(=O)c1ccc(-c2cc[nH]c(=O)c2N)cc1` came in with a half-life above 30 min.
